Measured values published in patent publication US20250171423A1, “PHARMACEUTICAL COMPOUNDS FOR THE TREATMENT OF COMPLEMENT MEDIATED DISORDERS” (Achillion Pharmaceuticals, Inc., priority 2020, published 2025).

The compounds below were run against T1, Human complement C1s enzyme (Homo sapiens, UniProt P09871) (assay: Human C1s Enzyme Assay). Settings: human C1s 1.16 nM, 5 min preincubation, substrate Z-L-Lys-SBzl 100 μM, A405; read-out: C1s Protease Activity.
T1 construct: purified from human serum, Complement Technology, Inc; purchased Complement Technology, Inc; host or cells: human serum
T1 sequence (P09871 438-688 limits assumed): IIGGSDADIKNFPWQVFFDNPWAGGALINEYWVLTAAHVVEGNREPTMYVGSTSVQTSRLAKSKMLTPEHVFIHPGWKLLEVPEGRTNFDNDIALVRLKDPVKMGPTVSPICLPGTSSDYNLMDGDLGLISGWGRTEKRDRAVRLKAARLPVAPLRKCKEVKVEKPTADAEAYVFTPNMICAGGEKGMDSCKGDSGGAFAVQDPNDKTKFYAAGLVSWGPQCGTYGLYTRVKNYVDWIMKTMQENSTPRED
T1 sequence (P09871 16-437 partner limits assumed): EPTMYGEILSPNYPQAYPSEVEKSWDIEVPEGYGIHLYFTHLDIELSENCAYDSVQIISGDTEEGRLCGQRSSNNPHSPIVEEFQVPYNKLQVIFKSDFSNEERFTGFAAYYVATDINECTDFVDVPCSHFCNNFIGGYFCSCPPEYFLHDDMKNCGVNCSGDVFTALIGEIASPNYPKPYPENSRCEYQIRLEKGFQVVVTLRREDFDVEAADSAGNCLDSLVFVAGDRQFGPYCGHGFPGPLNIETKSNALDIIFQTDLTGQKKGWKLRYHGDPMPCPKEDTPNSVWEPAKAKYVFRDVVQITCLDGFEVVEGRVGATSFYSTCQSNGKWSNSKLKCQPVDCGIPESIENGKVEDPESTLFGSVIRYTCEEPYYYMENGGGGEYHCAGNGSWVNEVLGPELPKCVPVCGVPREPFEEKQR
Assay type: biochemical
Procedure, shortened: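 IC50 values were fitted by nonlinear regression to rates measured as A405 every 30 s for 30 min. The thioester substrate Z-L-Lys-SBzl and Ellman's reagent were each at 100 μM. Serum-derived C1s at 1.16 nM final had 5 min of room-temperature preincubation with compound (pH 7.5 Tris buffer, 1 M NaCl).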

| IC50 | SMILES |
| --- | --- |
| < 100 nM | COC[C@@H]1C[C@@H](C(=O)N[C@H](C)c2cc(C(=N)N)cs2)N(C(=O)CNC(=O)c2ccc(Oc3ccccc3)cc2)C1 [Compound 253, (2S,4R)-N-((R)-1-(4-carbamimidoylthiophen-2-yl)ethyl)-4-(methoxymethyl)-1-((4-phenoxybenzoyl)glycyl)pyrrolidine-2-carboxamide] |
| < 100 nM | COC[C@H]1C[C@@H](C(=O)N[C@H](C)c2cc(C(=N)N)cs2)N(C(=O)CNC(=O)c2ccc(Oc3ccccc3)cc2)C1 (relative stereo) [Compound 252, (2S,4S*)-N-((R)-1-(4-carbamimidoylthiophen-2-yl)ethyl)-4-(methoxymethyl)-1-((4-phenoxybenzoyl)glycyl)pyrrolidine-2-carboxamide] |
| > 1000 nM | N=C(N)c1csc([C@H](NC(=O)[C@@H]2C[C@@H](OC(F)F)CN2C(=O)CNC(=O)c2ccc(Oc3ccccc3)cc2)C(N)=O)c1 (single isomer, unassigned) [Compound 215] |
| > 1000 nM | C[C@@]12C[C@@H]1N(C(=O)CNC(=O)CCCOc1ccccc1)[C@H](C(=O)NCc1cc(C(=N)N)c(C(F)(F)F)s1)C2 [Compound 251, (1S,3S,5S)-N-((4-carbamimidoyl-5-(trifluoromethyl)thiophen-2-yl)methyl)-5-methyl-2-((4-phenoxybutanoyl)glycyl)-2-azabicyclo[3.1.0]hexane-3-carboxamide] |
| > 1000 nM | C[C@@H](NC(=O)[C@@H]1C[C@@]23COCCCCCCCCCCCCc4cc(ccc4Oc4ccc(F)cc4)C(=O)NCC(=O)N1[C@H]2C3)c1cc(C(=N)N)cs1 [Compound 257, (1R,26S,29S)-N-[(1R)-1-(4-carbamimidoylthiophen-2-yl)ethyl]-17-(4-fluorophenoxy)-21,24-dioxo-3-oxa-22,25-diazatetracyclo[23.2.2.1^16,^20.0^1,^26]triaconta-16,18,20(30)-triene-29-carboxamide] |
| > 1000 nM | COC[C@@H](NC(=O)[C@@H]1C[C@@H](OC(F)F)CN1C(=O)CNC(=O)c1ccc(Oc2ccccc2)cc1)c1cc(C(=N)N)cs1 [Compound 213, (2S,4R)-N-((R)-1-(4-carbamimidoylthiophen-2-yl)-2-methoxyethyl)-4-(difluoromethoxy)-1-((4-phenoxybenzoyl)glycyl)pyrrolidine-2-carboxamide] |
| < 100 nM | C[C@@]12C[C@@H]1N(C(=O)CNC(=O)c1ccc(Oc3cccnc3)cn1)[C@H](C(=O)NCc1cc(C(=N)N)cs1)C2 [Compound 162, (1S,3S,5S)-N-((4-carbamimidoylthiophen-2-yl)methyl)-5-methyl-2-((5-(pyridin-3-yloxy)picolinoyl)glycyl)-2-azabicyclo[3.1.0]hexane-3-carboxamide] |

The remaining lines, values behind:

| SMILES | IC50 |
| --- | --- |
| CC(=O)NCCOC[C@@]12C[C@@H]1N(C(=O)CNC(=O)c1ccc(Oc3ccccc3)cc1)[C@H](C(=O)N[C@H](C)c1cc(C(=N)N)cs1)C2 [Compound 141, (1S,3S,5R)-5-((2-acetamidoethoxy)methyl)-N-((R)-1-(4-carbamimidoylthiophen-2-yl)ethyl)-2-((4-phenoxybenzoyl)glycyl)-2-azabicyclo[3.1.0]hexane-3-carboxamide] | < 100 nM |
| C[C@@]12C[C@@H]1N(C(=O)CNC(=O)c1ccc(Oc3ccccn3)cc1)[C@H](C(=O)NCc1cc(C(=N)N)cs1)C2 [Compound 153, (1S,3S,5S)-N-((4-carbamimidoylthiophen-2-yl)methyl)-5-methyl-2-((4-(pyridin-2-yloxy)benzoyl)glycyl)-2-azabicyclo[3.1.0]hexane-3-carboxamide] | < 100 nM |
| Cc1ccc(O[C@@H]2C[C@@H](C(=O)N[C@H](C)c3cc(C(=N)N)cs3)N(C(=O)CNC(=O)CCCOc3ccccc3)C2)cc1 [Compound 131, (2S,4R)-N-((R)-1-(4-carbamimidoylthiophen-2-yl)ethyl)-1-((4-phenoxybutanoyl)glycyl)-4-(p-tolyloxy)pyrrolidine-2-carboxamide] | < 100 nM |
| CC(=O)NCCOC[C@@]12C[C@@H]1N(C(=O)CNC(=O)c1ccc(Oc3ccccc3)cc1)[C@H](C(=O)NCc1cc(C(=N)N)cs1)C2 [Compound 74, (1S,3S,5R)-5-((2-acetamidoethoxy)methyl)-N-((4-carbamimidoylthiophen-2-yl)methyl)-2-((4-phenoxybenzoyl)glycyl)-2-azabicyclo[3.1.0]hexane-3-carboxamide] | < 100 nM |
| N=C(N)c1csc(CNC(=O)[C@@H]2CC3(CN2C(=O)CNC(=O)CCCOc2ccc(F)cc2)OCCO3)c1 [Compound 65, (S)-N-((4-carbamimidoylthiophen-2-yl)methyl)-7-((4-(4-fluorophenoxy)butanoyl)glycyl)-1,4-dioxa-7-azaspiro[4.4]nonane-8-carboxamide] | < 100 nM |
| N=C(N)c1csc(CNC(=O)[C@@H]2CC3(CN2C(=O)CNC(=O)CCCOc2ccccc2)OCCO3)c1 [Compound 28, (S)-N-((4-carbamimidoylthiophen-2-yl)methyl)-7-((4-phenoxybutanoyl)glycyl)-1,4-dioxa-7-azaspiro[4.4]nonane-8-carboxamide] | < 100 nM |
| C[C@@]12C[C@@H]1N(C(=O)CNC(=O)c1ccc(Oc3ccc(P(C)(=O)O)cc3)cc1)[C@H](C(=O)NCc1cc(C(=N)N)cs1)C2 [Compound 53, (4-(4-((2-((1S,3S,5S)-3-(((4-carbamimidoylthiophen-2-yl)methyl)carbamoyl)-5-methyl-2-azabicyclo[3.1.0]hexan-2-yl)-2-oxoethyl)carbamoyl)phenoxy)phenyl)-(methyl)phosphinic acid] | 100 to 1000 nM |
| C[C@@]12C[C@@H]1N(C(=O)CNC(=O)c1ccc(Oc3ccccc3)cc1)[C@H](C(=O)NCc1cc(/C(N)=N/S(C)(=O)=O)cs1)C2 [Compound 13, (1S,3S,5S)-5-methyl-N-((4-((Z)-N′-(methylsulfonyl)carbamimidoyl)thiophen-2-yl)-methyl)-2-((4-phenoxybenzoyl)glycyl)-2-azabicyclo[3.1.0]hexane-3-carboxamide] | > 1000 nM |
| CO/N=C(\N)c1csc(CNC(=O)[C@@H]2C[C@]3(C)C[C@@H]3N2C(=O)CNC(=O)c2ccc(Oc3ccccc3)cc2)c1 [Compound 6, (1S,3S,5S)-N-((4-((Z)-N′-methoxycarbamimidoyl)thiophen-2-yl)methyl)-5-methyl-2-((4-phenoxybenzoyl)glycyl)-2-azabicyclo[3.1.0]hexane-3-carboxamide] | > 1000 nM |
| N=C(N)c1csc(CNC(=O)[C@@H]2C[C@@H](OC(F)F)CN2C(=O)CNC(=O)CCCOc2ccccc2)c1 [Compound 29, (2S,4R)-N-((4-carbamimidoylthiophen-2-yl)methyl)-4-(difluoromethoxy)-1-((4-phenoxybutanoyl)glycyl)pyrrolidine-2-carboxamide] | < 100 nM |
| C[C@@]12C[C@@H]1N(C(=O)CNC(=O)c1ccc(Oc3ccccc3)cc1)[C@H](C(=O)NCc1cc(S(C)(=N)=O)cs1)C2 (stereo partly drawn) [Compound 23, (1S,3S,5S)-5-methyl-N-((4-(S-methylsulfonimidoyl)thiophen-2-yl)methyl)-2-((4-phenoxybenzoyl)glycyl)-2-azabicyclo[3.1.0]hexane-3-carboxamide] | > 1000 nM |
| C[C@@]12C[C@@H]1N(C(=O)CNC(=O)c1ccc(OC3CCCCC3)cc1)[C@H](C(=O)NCc1cc(C(=N)N)cs1)C2 [Compound 160, (1S,3S,5S)-N-((4-carbamimidoylthiophen-2-yl)methyl)-2-((4-(cyclohexyloxy)benzoyl)glycyl)-5-methyl-2-azabicyclo[3.1.0]hexane-3-carboxamide] | < 100 nM |
